Patent US8865721B2, “Delta opioid receptor agonist compounds” (priority 2001, dated 2014)
Entries after “also recorded” stand apart in the source; their conditions may differ. Where two headings read alike, the source gives them in different places.

Experiments:
[1] = tested on: male CD-1 mice, electrically stimulated ejaculation; test: electroejaculation test in conscious male mice (bipolar rectal probe); type: in vivo, mouse; details: for Effective Dose / Ejaculation Inhibition % / Max. ejaculation Inhibition / Optimal Dose: male mice; for Effective Dose / Ejaculation Inhibition %: oral; for Ejaculation Inhibition %: at the effective dose; for Max. ejaculation Inhibition / Optimal Dose: subcutaneous injection; for Max. ejaculation Inhibition: at the optimal dose; for Optimal Dose: dose giving max. ejaculation inhibition
Method: To investigate the efficacy of delta opioid receptor agonists as a treatment for premature ejaculation, intact conscious male mice were electrically stimulated subsequent to the administration of a delta opioid receptor agonist to determine if a delay in ejaculation was observed when compared to administration of a placebo
Male, CD-1 mice (20-30 g) were housed in groups of ten (10) in Plexiglas® chambers with food and water available before any procedure. Animals were maintained on a 12 hour light/dark cycle in a temperature-controlled animal colony. Studies were carried out in accordance with the Guide for the Care and Use of Laboratory animals as adopted and promulgated by the National Institutes of Health.
Specifically, the bipolar electrode probe is an approximately 5 cm long tube having an outer diameter of approximately 0.25 cm with an inner diameter of approximately 0.08. In the center lumen of the elongated tubular body 12 are embedded cathode 16 and anode 18, which are formed of a conductive material, preferably platinum. The cathode 16 and anode 18 are connected at one end to external power supplying means (not shown). Anode 18 extends at the other end all the way to one extremity of the elongated body 12 and forming an anode terminal 22 at such extremity. Cathode 16 only extends to a middle portion of the elongated body 12 and forming a cathode terminal 20 at such middle portion. The cathode terminal 20 is preferably positioned away from the anode terminal 22, at a distance of about 0.5 cm.
The testing delta opioid receptor agonist (SNC-80) was purchased from Tocris Cookson, Inc., Ellisville, Mo., USA, and dissolved in 5% dextrose injection solution. An equimolar amount of aqueous hydrochloric acid was added when the manufacturer packaged the compound in its base form. The placebo was 5% dextrose alone. Each mouse was injected subcutaneously with […] of the SNC-80 compound or with 10 mg/kg of a placebo. 10 minutes after the injection, the test mouse was subjected to electrostimulation. Ten mice were tested for each dose level, the order of each mouse receiving different doses was blinded and in a random manner.
During the testing the mouse was restrained in a cone bag with rear legs extending from the bag. Excess fecal matter was removed from the rectum and the above-discussed lubricated bipolar electrode was inserted approximately 2.5 cm into the rectum. […] The stimulation regime included 4 stimulating events for each voltage lasting 2 seconds with a rest period of 2 seconds between stimulating events until ejaculation occurred or the terminal voltage of 8 volts was reached. A white coagulum ejaculate from the penis indicates a successful ejaculation.
For the electroejaculation test, dose-response lines were constructed as an accumulated ejaculation at a specified voltage. A minimum of 10 mice was used at each dose level. Each dose response was the average of two to three independent experiments. Students' t-test was used to assess unpaired comparison, with […] indicating significance.
Testing was conducted on mice injected with SNC-80 or a buffer vehicle for the control group. […] Each mouse was subjected to electroejaculation at 40 Hz (starting at 3 volts with a gradual increase to 8 volts by increments of 0.5 volts) approximately 10 minutes after subcutaneous administration of SNC-80 at different doses of 0, 0.1, 0.3 and 1 mg/kg. A minimum of 10 mice were used at each dose level. Each does response was the average of two to three independent experiments±SEM.
To determine if SNC-80 inhibits the ejaculation via specific binding to delta opioid receptor, the effect of SNC-80 on ejaculation was tested against the delta opioid selective antagonist naltrindole (NTI). Subcutaneous injections of a control vehicle (CTL), 0.5 mg/kg SNC-80, 0.5 mg/kg SNC-80 plus 0.1 mg/kg of NTI and 0.1 mg/kg of NTI were administered to the mice. A minimum of 10 mice was utilized for each dose level. […]

[2] = molecular target: delta opioid receptor (Homo sapiens, UniProt P41143); test: radio-ligand competition binding assay, δ
[3] = molecular target: μ opioid receptor (Homo sapiens, UniProt P35372); test: radio-ligand competition binding assay, μ
[4] = molecular target: κ opioid receptor (Homo sapiens, UniProt P41145); test: radio-ligand competition binding assay, κ
[5] = tested on: mouse vas deferens; test: in vitro inhibition of electrically stimulated contraction of mouse vas deferens in tissue bath
[6] = tested on: mouse vas deferens; details: background statement; cited from earlier work
[7] = radio-ligand competition binding per U.S. Pat. Nos. 5,985,880 and 5,807,858, read-out: δ binding affinity
[8] = radio-ligand competition binding per U.S. Pat. Nos. 5,985,880 and 5,807,858, read-out: κ binding affinity

Molecule	Effective Dose [1]	Ejaculation Inhibition % [1]	EC50 [5]	Max. ejaculation Inhibition [1]	Optimal Dose [1]	other results
4-(alpha-R)-alpha-((2S,5R)-4-(Cyclopropylmethyl)-2,5-dimethyl-1-piperazinyl)-3-hydroxybenzyl)-N,N-diethylbenzamide [Example 35]	0.3 mg/kg	60%				
CCN(CC)C(=O)c1ccc([C@H](c2cccc(O)c2)N2C[C@@H](C)N(Cc3ccc(F)cc3)C[C@@H]2C)cc1 [Example 11, 4-((alpha-R)-alpha-((2S,5R)-2,5-Dimethyl-4-(4-fluorobenzyl)-1-piperazinyl)-3-hydroxybenzyl)-N,N-diethylbenzamide]			2.8 nM	30%	5 mg/kg	Ki [2, 7]: 1.23 nM; Ki [3]: 27.1 nM; Ki [4, 8]: > 100 nM
CCN(CC)C(=O)c1ccc([C@H](c2cccc(O)c2)N2C[C@@H](C)N(Cc3ccccc3)C[C@@H]2C)cc1 [Example 12, 4-((alpha-R)-alpha-((2S,5R)-4-Benzyl-2,5-dimethyl-1-piperazinyl)-3-hydroxybenzyl)-N,N-diethylbenzamide]			4.4 nM	28%	5 mg/kg	Ki [2, 7]: 0.123 nM; Ki [3]: 1.45 nM; Ki [4, 8]: 68.7 nM
CCN(CC)C(=O)c1ccc([C@H](c2cccc(O)c2)N2C[C@@H](C)N(Cc3ccc(C(=O)O)cc3)C[C@@H]2C)cc1 [Example 13, 4-{(2R,5S)-4-[(R)-(4-Diethylcarbamoylphenyl)(3-hydroxyphenyl)methyl]-2,5-dimethylpiperazin-1-ylmethyl)benzoic acid]			21.2 nM	50%	5 mg/kg	Ki [2]: 5.69 nM; Ki [3]: 3470 nM; Ki [4]: > 100 nM
C=CCN1C[C@H](C)N([C@H](c2ccc(C(=O)N(CC)CC)cc2)c2cccc(OCC(=O)O)c2)C[C@H]1C [Example 14, 3-((alpha-R)-alpha-((2S,5R)-4-Allyl-2,5-dimethyl-1-piperazinyl)-4-(diethylamino-carbonyl)benzyl)phenoxyacetic acid]	0.01 mg/kg	45%	7.2 nM	35%	10 mg/kg	Ki [2]: 11.1 nM; Ki ([3]; radio-ligand competition binding per U.S. Pat. Nos. 5,985,880 and 5,807,858, read-out: μ binding affinity): 162 nM; Ki [4]: > 100 nM
CCN(CC)C(=O)c1ccc([C@H](c2cccc(OCC(=O)O)c2)N2C[C@@H](C)N(Cc3ccccc3)C[C@@H]2C)cc1 [Example 15, 3-((alpha-R)-alpha-((2S,5R)-4-Benzyl-2,5-dimethyl-1-piperazinyl)-4-(diethylaminocarbonyl)benzyl)phenoxyacetic acid]	3 mg/kg	66%				
CCN(CC)C(=O)c1cccc([C@H](c2cccc(O)c2)N2C[C@@H](C)N(Cc3cccc(O)c3)C[C@@H]2C)c1 [Example 17, N,N-Diethyl-3-((R)-((2S,5R)-2,5-dimethyl-4-(3-hydroxybenzyl)piperazin-1-yl)(3-hydroxyphenyl)methyl)benzamide]			2.9 nM	50%	1 mg/kg	Ki [2, 7]: 0.66 nM; Ki [3]: 1.28 nM; Ki [4, 8]: 20.9 nM
CCN(CC)C(=O)c1ccc([C@H](c2cccc(OC)c2)N2C[C@@H](C)N(Cc3ccc(F)cc3)C[C@@H]2C)cc1 [Example 29, 4-((alpha-R)-alpha-((2S,5R)-2,5-Dimethyl-4-(4-fluorobenzyl)-1-piperazinyl)-3-methoxybenzyl)-N,N-diethylbenzamide]	3 mg/kg	38%				
CCN(CC)C(=O)c1ccc([C@H](c2cccc(O)c2)N2C[C@@H](C)N(Cc3cccc(F)c3)C[C@@H]2C)cc1 [Example 36, 4-((alpha-R)-alpha-((2S,5R)-2,5-Dimethyl-4-(3-fluorobenzyl)-1-piperazinyl)-3-hydroxybenzyl)-N,N-diethylbenzamide]	3 mg/kg	60%				
CCN(CC)C(=O)c1ccc([C@H](c2ccccc2)N2C[C@@H](C)N(Cc3ccc(O)cc3)C[C@@H]2C)cc1 [Example 37, 4-((alpha-S)-alpha-((2S,5R)-2,5-Dimethyl-4-(4-hydroxybenzyl)-1-piperazinyl)-benzyl)-N,N-diethylbenzamide]	3 mg/kg	50%				
CCN(CC)C(=O)c1ccc([C@H](c2cccc(OC)c2)N2C[C@@H](C)N(Cc3ccccc3)C[C@@H]2C)cc1 [Example 38]	3 mg/kg	33%				
CCN(CC)C(=O)c1ccc([C@H](c2cccc(OC)c2)N2C[C@@H](C)N(Cc3ccccc3F)C[C@@H]2C)cc1 [Example 39, 4-((alpha-R)-alpha-((2S,5R)-2,5-Dimethyl-4-(2-fluorobenzyl)-1-piperazinyl)-3-methoxybenzyl)-N,N-diethylbenzamide]	10 mg/kg	50%				
C=CCN1C[C@@H](C)N([C@H](c2ccc(S(=O)(=O)N(C)C)cc2)c2cccc(O)c2)C[C@@H]1C [Example 40, 4-[(R)-((2R,5S)-4-Allyl-2,5-dimethylpiperazin-1-yl)(3-hydroxyphenyl)methyl]-N,N-dimethylbenzenesulfonamide]	0.3 mg/kg	50%				
CCN(CC)C(=O)c1ccc([C@H](c2ccccc2)N2C[C@H](C)N(Cc3cccc(F)c3)C[C@H]2C)cc1 [Example 41, 4-((alpha-S)-alpha-((2R,5S)-2,5-Dimethyl-4-(3-fluorobenzyl)-1-piperazinyl)benzyl)-N,N-diethylbenzamide]	0.4 mg/kg	75%				
Oc1ccc2c3c1O[C@H]1c4[nH]c5ccccc5c4C[C@@]4(O)[C@@H](C2)N(CC2CC2)CC[C@]314 [NTI, naltrindole, reference compound]						ejaculation response, antagonist alone ([1]; 0.1 mg/kg subcutaneous, 35 Hz, FIG. 4): did not affect the ejaculation response
C=CCN1C[C@H](C)N([C@H](c2ccc(C(=O)N(CC)CC)cc2)c2cccc(OC)c2)C[C@H]1C [SNC-80, reference compound]						contraction of mouse vas deferens smooth muscle in vitro [6]: block the contraction of mouse vas deferens smooth muscle in vitro; inhibitory effect on ejaculation at reduced dose ([1]; 0.1 mg/kg subcutaneous, 40 Hz, FIG. 3): inhibitory effect diminished; inhibitory effect on ejaculation with co-injected antagonist ([1]; 0.5 mg/kg SNC-80 plus 0.1 mg/kg NTI subcutaneous, 35 Hz, FIG. 4): abolished; also recorded: inhibitory effect was blocked; reduction of ejaculation (factor) ([1]; 0.5 mg/kg subcutaneous, 35 Hz, 10 minutes after injection, FIG. 4): at least 2; occurrence of ejaculation versus control group ([1]; 1 mg/kg subcutaneous, 40 Hz, 10 minutes after injection, FIG. 3): significantly reduced the occurrence of ejaculation
